Values of other authors, collected in patent EP2566463B1, “EXTENDED RELEASE THIOCO[…]” (Ali Raif Ilac Sanayi Ve Ticaret A.S., priority 2010, dated 2011).

Experiments:
[1] = conventional, immediate release forms of thiocolchicoside
[2] = conventional, immediate release forms

Molecule	Elimination half life in plasma [1] [h]	muscle relaxing effect starts [2] [h]
COc1c(O)cc2c(c1OC)-c1ccc(SC)c(=O)cc1C(NC(C)=O)CC2 (stereo not drawn) [3-Desmethylthiocolchicine]	4 to 5	
N-[3-(β-D-glucopyranosyloxy)-1,2-dimethoxy-10-(methylthio)-9-oxo-5,6,7,9-tetrahydrobenzo[a]heptalen-7-yl]acetamide [thiocolchicoside]	4 to 5	1 to 2
